Test results from patent US20090088403A1, “A3 ADENOSINE RECEPTORS AS TARGETS FOR THE MODULATION OF CENTRAL SEROTONERGIC SIGNALING” (priority 2007, published 2009).

What was measured:
Assay type in all cases: cell-based
SERT = test: [3H]5-HT transport assay in mouse brain synaptosomes; settings: for effect on IB-MECA (10 nM) stimulated 5-HT uptake: inhibitor 10 min before IB-MECA, MRS1191 1 μM, DT-2 1.0 μM, H8 0.1 μM, SB203580 1.0 μM
dopamine transporter = test: [3H]DA uptake in mouse striatal and midbrain synaptosomes; settings: 10 min
GABA transport activity = test: [3H]GABA uptake in mouse striatal and midbrain synaptosomes; settings: 10 min
[1] = midbrain synaptosomes, IB-MECA 10 nM 10 min, MRS1191 1 μM 10 min before IB-MECA, Michaelis-Menten fit, mean (n=3) ±SEM

Q: Which “effect on SERT activity” value (SERT; midbrain synaptosomes, 10 min at 37° C.) does the source give for `CCNC(=O)C1OC(n2cnc3c(N)ncnc32)C(O)C1O` (stereo not shown) [NECA, 5′-N-ethyl-carboxamidoadenosine] here?
A: fails to stimulate SERT activity

Q: And the “effect on 5-HT transport at high concentration” value (SERT; midbrain synaptosomes, concentrations above 1 μM)?
A: inhibited 5-HT transport

Q: For `C[C@H](Cc1ccccc1)Nc1ncnc2c1ncn2[C@@H]1O[C@H](CO)[C@@H](O)[C@H]1O` [R-PIA, (R)—N^6-phenylisopropyladenosine], which “impact on 5-HT transport” value (SERT; midbrain synaptosomes, 1~1000 nM, 10 min at 37° C.) is on record?
A: No impact

Q: How did the “effect on IB-MECA (10 nM) stimulated 5-HT uptake” value (SERT; midbrain synaptosomes) turn out when `CCOC(=O)C1=C(C)NC(c2ccccc2)=C(C(=O)OCc2ccccc2)C1C#Cc1ccccc1` (racemic) [MRS1191, 3-ethyl-5-benzyl-2-methyl-phenylethynyl-6-phenyl-1,4(±)dihydropyridine-3,5-dicarboxylate] was run?
A: prevented the stimulatory actions of IB-MECA on 5-HT uptake

Q: And the “effect alone on basal 5-HT transport” value (SERT; synaptosomes, 0.01-100 μM, data not shown)?
A: did not influence basal 5-HT transport

Q: For `CNCCNS(=O)(=O)c1cccc2cnccc12` [H8, N-[2-(methylamino)ethy]-5-isoquinoline-sulfonamide], which “effect on IB-MECA (10 nM) stimulated 5-HT uptake” value (SERT; midbrain synaptosomes) is on record?
A: blocked IB-MECA regulation of SERT

Q: How did the “increase in 5-HT transport” value (SERT; midbrain and hippocampal synaptosomes of A3AR+/+ mice, 10 nM, 10 min) turn out when “N6-(3-iodobenzyl)-N-methyl-5′carbamoyladenosine [IB-MECA]” was run?
A: 40-50%

Q: What about the “stimulation of SERT activity in A3AR−/− mice” value (SERT; midbrain and hippocampal synaptosomes of A3AR−/− mice, 10 nM, 10 min) of the same compound?
A: failed to stimulate SERT activity

Q: And the “effect on SERT Vmax for 5-HT” value (SERT; midbrain synaptosomes, 10 nM)?
A: significantly increased the SERT Vmax for 5-HT

Q: What about the “5-HT transport at peak stimulation” value (SERT; midbrain synaptosomes, 10 nM, 10 min pretreatment) of the same compound?
A: 130-150 % of control levels

Q: And the “time at which stimulation of 5-HT uptake reached a maximum” value (SERT; midbrain synaptosomes, 10 nM, post-treatment)?
A: 10 to 20 min

Q: And the “concentration at which stimulation of 5-HT transport peaked” value (SERT; midbrain synaptosomes, 10 min pretreatment)?
A: 10 nM

Q: And the Km (SERT; [1])?
A: 0.8 µM

Q: And the Vmax (SERT; [1])?
A: 2544+/−281 fmol/mg protein/min

Q: And the “effect on 5-HT uptake at high concentration” value (SERT; midbrain synaptosomes, exceeding 100 μM, data not shown)?
A: induced a decrease in 5-HT uptake

Q: What about the “SERT activity in striatal synaptosomes” value (SERT; striatal synaptosomes, 10 min) of the same compound?
A: IB-MECA-insensitive SERT activity

Q: What about the “concentration window for stimulation of 5-HT transport” value (SERT; synaptosomes, for 20 min) of the same compound?
A: 10 to 30 nM

Q: And the “effect on DA uptake” value (dopamine transporter)?
A: no stimulation

Q: And the “effect on GABA uptake” value (GABA transport activity)?
A: no stimulation
